Laboratory results taken from US4769377A, “Adenosine receptor antagonists” (priority 1986, dated 1988).

target: T1, adenosine A1 receptors (Bos taurus, UniProt P28190); assay: inhibition of [^3 H]CHA binding to A1 adenosine receptors in bovine brain membranes; details: not given;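 note: Filter-bound radioactivity read by liquid scintillation counting, with dose-inhibition curves built from 4–8 test concentrations, each run in triplicate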
T1 sequence (P28190 1-326): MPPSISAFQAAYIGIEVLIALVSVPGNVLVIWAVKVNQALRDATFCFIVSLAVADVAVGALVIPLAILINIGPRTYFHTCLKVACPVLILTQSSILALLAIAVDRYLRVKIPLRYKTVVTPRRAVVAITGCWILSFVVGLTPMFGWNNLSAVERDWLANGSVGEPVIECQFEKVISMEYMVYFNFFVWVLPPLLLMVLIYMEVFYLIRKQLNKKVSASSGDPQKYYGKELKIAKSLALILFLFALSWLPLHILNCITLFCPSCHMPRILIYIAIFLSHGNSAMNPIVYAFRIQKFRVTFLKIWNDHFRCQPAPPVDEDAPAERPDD

Row | Compound | IC50 [nM] | Ki [nM]
1 | COc1ccc(-c2nc3c([nH]2)c(=O)n(C)c(=O)n3C)cc1OC [8-(3,4-dimethoxyphenyl)T] | 20 | –
2 | Cn1cccc1-c1nc2c([nH]1)c(=O)n(C)c(=O)n2C [8-(N--methyl-2-pyrrolyl)T] | 20 | –
3 | Cn1c(=O)[nH]c2nc[nH]c2c1=O [1-methylX] | 6000 | 2600
4 | Cn1c(=O)c2[nH]c(-c3cccc(Br)c3)nc2n(C)c1=O [8-(m-bromophenyl)T] | – | 4
5 | Cn1c(=O)c2[nH]c(-c3ccc(Br)o3)nc2n(C)c1=O [8-(5-bromo-2-furyl)T] | 50 | –
6 | Cn1c(=O)c2nc(-c3cccs3)[nH]c2n(C)c1=O [8-(2-thienyl)T] | 5 | –
7 | Cn1c(=O)c2[nH]c(-c3cccc(O)c3)nc2n(C)c1=O [8-(m-hydroxyphenyl)T] | – | 3.1
8 | Cn1c(=O)c2[nH]c(-c3c[nH]c4ccccc34)nc2n(C)c1=O [8-(3-indolyl)T] | 18 | –
9 | Cn1c(=O)c2[nH]c(-c3ccco3)nc2n(C)c1=O [8-(2-furyl)T] | 18 | –
10 | CCCn1c(=O)n(CC)c(=O)c2scnc21 [1-ethyl-3-propyl-7-thiaxanthine] | 8000 | –
11 | Cn1c(=O)c2[nH]c(-c3cccc(N)c3)nc2n(C)c1=O [8-(m-aminophenyl)T] | – | 5.8
12 | Cn1c(=O)c2[nH]c(-c3ccccn3)nc2n(C)c1=O [8-(2-pyridyl)T] | 100 | –
13 | Nc1ncnc2nc[nH]c12 [adenine] | 800000 | –
14 | CCn1c(=O)c2nc[nH]c2n(CC)c1=O [1,3-diethylX] | 3000 | 1400
15 | Cn1c(=O)c2c(ncn2C)n(C)c1=O [caffeine] | 20000 | 11000
16 | C=CCn1c(=O)c2nc[nH]c2n(CC=C)c1=O [1,3-diallylX] | 4000 | –
17 | Cn1cnc2c1c(=O)[nH]c(=O)n2C [3,7-Dimethyl (theobromine), theobromine] | – | 68
18 | Cn1c(=O)c2[nH]c(-c3ccc4ccccc4c3)nc2n(C)c1=O [8-(2-naphthyl)T] | 5 | –
19 | Cn1c(=O)c2[nH]c(-c3cccnc3)nc2n(C)c1=O [8-(3-pyridyl)T] | 50 | –
20 | Cn1c(=O)c2c(ncn2CC(O)CO)n(C)c1=O (centres unmarked) [7-(2,3-dihydroxypropyl)T] | 800000 | –
21 | Cn1c(=O)c2c(ncn2CCO)n(C)c1=O [7-(2-hydroxyethyl)T] | 100000 | –
22 | Cn1c(=O)c2[nH]c(-c3cccc(C(=O)O)c3)nc2n(C)c1=O [8-(m-carboxyphenyl)T] | – | 540
23 | Cn1cnc2c(N)ncnc21 [9-methyladenine] | 35000 | –

Further lines, results first:

Row | IC50 [nM] | Ki [nM] | Compound
24 | 1500 | – | O=c1nc2[nH]c3ccccc3nc-2c(=O)[nH]1 [alloxazine]
25 | 30 | – | Cn1c(=O)c2[nH]c(CC3CCCC3)nc2n(C)c1=O [8-cyclopentylmethylT]
26 | 6 | – | Cc1ccccc1-c1nc2c([nH]1)c(=O)n(C)c(=O)n2C [8-(o-methylphenyl)T]
27 | 3 | – | Cn1c(=O)c2nc(C3CCCCC3)[nH]c2n(C)c1=O [8-cyclohexylT]
28 | – | 21000 | Cn1c(=O)c2[nH]c(-c3ccccc3C(=O)O)nc2n(C)c1=O [8-(o-carboxyphenyl)T]
29 | 5 | 2.3 | Cn1c(=O)c2nc(-c3ccccc3N)[nH]c2n(C)c1=O [B87, 8-(o-aminophenyl)theophylline]
30 | – | 18 | Cn1c(=O)c2[nH]c(-c3ccc(C(=O)O)cc3)nc2n(C)c1=O [8-(p-carboxyphenyl)T]
31 | 1.7 | 0.69 | Cn1c(=O)c2[nH]c(-c3ccc(N)cc3)nc2n(C)c1=O [B211, 8-(p-aminophenyl)theophylline]
32 | 200 | 100 | CCCn1c(=O)c2nc[nH]c2n(CCC)c1=O [B80, 1,3-dipropylxanthine]
33 | 0.8 | 0.34 | Cn1c(=O)c2[nH]c(-c3ccc(Br)cc3)nc2n(C)c1=O [8-(p-bromophenyl)T]
34 | – | 49 | Cn1c(=O)c2[nH]c(-c3ccccc3[N+](=O)[O-])nc2n(C)c1=O [8-(o-nitrophenyl)T]
35 | – | 22 | Cn1c(=O)c2[nH]c(-c3cccc([N+](=O)[O-])c3)nc2n(C)c1=O [8-(m-nitrophenyl)T]
36 | – | 2 | Cn1c(=O)c2[nH]c(-c3ccc(O)cc3)nc2n(C)c1=O [8-(p-hydroxyphenyl)T]
37 | – | 4.8 | Cn1c(=O)c2[nH]c(-c3ccccc3O)nc2n(C)c1=O [8-(o-hydroxyphenyl)T]
38 | 500 | – | Cn1c(=O)c2[nH]c(-c3ccc(S(=O)(=O)O)cc3)nc2n(C)c1=O [8-(p-sulfo-phenyl)T]
39 | 100 | – | CCCc1nc2c([nH]1)c(=O)n(C)c(=O)n2C [8-(n-propyl)T]
40 | 0.3 | 0.12 | CCCn1c(=O)c2[nH]c(-c3ccccc3)nc2n(CCC)c1=O [B255, 1,3-Dipropyl-8-Phenylxanthine]
41 | 12 | – | Cn1c(=O)c2[nH]c(-c3ccccc3F)nc2n(C)c1=O [8-(o-fluorophenyl)T]
42 | 200000 | 99000 | O=c1[nH]c(=O)c2[nH]cnc2[nH]1 [xanthine]
43 | – | 4 | Cn1c(=O)c2[nH]c(-c3ccc([N+](=O)[O-])cc3)nc2n(C)c1=O [8-(p-nitrophenyl)T]
44 | 2 | – | Cn1c(=O)c2[nH]c(C3CCCC3)nc2n(C)c1=O [8-cyclopentylT]
45 | 1500 | – | Cn1c(=O)c2[nH]c(Cc3ccccc3)nc2n(C)c1=O [8-benzylT]

same assay, conditions: Table I; vs [^3 H]-cyclohexyladenosine, bovine brain

Row | IC50 [nM] | Compound
46 | 0.8 | Cn1c(=O)c2[nH]c(-c3ccc(Cl)cc3)nc2n(C)c1=O [B70, 8-(p-chlorophenyl)theophylline]

same assay, conditions: Table II; vs [^3 H-CHA] in bovine brain

Row | Compound | IC50 [nM]
47 | Cn1c(=O)c2[nH]c(-c3ccc(Cl)c(Cl)c3)nc2n(C)c1=O [8-(3,4-dichlorophenyl)T] | 5
48 | Cn1c(=O)c2[nH]c(-c3cccc(Br)c3)nc2n(C)c1=O [8-(m-bromophenyl)T] | 10
49 | Cn1c(=O)c2[nH]c(-c3cccc(O)c3)nc2n(C)c1=O [8-(m-hydroxyphenyl)T] | 6
50 | Cc1cc(O)cc(C)c1-c1nc2c([nH]1)c(=O)n(C)c(=O)n2C [8-(2,6-dimethyl-4-hydroxyphenyl)T] | 30
51 | Cc1ccc(-c2nc3c([nH]2)c(=O)n(C)c(=O)n3C)c(N)c1 [8-(2-amino-4-methylphenyl)T] | 10
52 | C=CCn1c(=O)c2[nH]c(-c3ccc(C)cc3N)nc2n(C)c1=O [1-allyl-3-methyl-8-(2-amino-4-methylphenyl)X] | 7
53 | Cn1c(=O)c2[nH]c(-c3cccc(F)c3)nc2n(C)c1=O [8-(m-fluorophenyl)T] | 4
54 | Cn1c(=O)c2[nH]c(-c3cccc(N)c3)nc2n(C)c1=O [8-(m-aminophenyl)T] | 10
55 | CCCCOc1ccc(-c2nc3c([nH]2)c(=O)n(C)c(=O)n3C)cc1 [8-(p-butoxyphenyl)T] | 4
56 | C=CCn1c(=O)c2[nH]c(-c3ccc(Cl)cc3N)nc2n(CC=C)c1=O [1,3-diallyl-8-(2-amino-4-chlorophenyl)X, 1,3-diallyl-8-(2-amino-4-chlorophenyl)xanthine] | 0.8
57 | Cn1c(=O)[nH]c2nc(-c3ccccc3)[nH]c2c1=O [1-methyl-8-phenylX] | 2.5
58 | Cn1c(=O)c2[nH]c(-c3ccncc3)nc2n(C)c1=O [8-(4-pyridyl)T] | 35
59 | CCn1c(=O)c2[nH]c(-c3ccc(Br)cc3)nc2n(CC)c1=O [1,3-diethyl-8-(p-bromophenyl)X] | 1
60 | C=CCn1c(=O)c2[nH]c(-c3ccc(Cl)cc3N)nc2n(C)c1=O [1-allyl-3-methyl-8-(2-amino-4-chlorophenyl)X] | 2
61 | CN(C)c1cccc(-c2nc3c([nH]2)c(=O)n(C)c(=O)n3C)c1 [8-(m-dimethylaminophenyl)T] | 80
62 | Cn1c(=O)c2[nH]c(-c3ccoc3)nc2n(C)c1=O [8-(3-furyl)T] | 4
63 | COc1ccc(-c2nc3c([nH]2)c(=O)n(C)c(=O)n3C)c(OC)c1 [8-(2,4-dimethoxyphenyl)T] | 200
64 | Cn1c(=O)c2[nH]c(-c3cccc4ccccc34)nc2n(C)c1=O [8-(1-naphthyl)T] | 80
65 | Cn1c(=O)c2[nH]c(-c3cccc(C(=O)O)c3)nc2n(C)c1=O [8-(m-carboxyphenyl)T] | 1000
66 | C=CCn1c(=O)c2[nH]c(-c3ccccc3)nc2n(C)c1=O [1-allyl-3-methyl-8-phenylX] | 4

Other lines, results leading:

Row | IC50 [nM] | Compound
67 | 2 | CSc1ccc(-c2nc3c([nH]2)c(=O)n(C)c(=O)n3C)cc1 [8-(p-methylthiophenyl)T]
68 | 1.3 | Cn1c(=O)c2[nH]c(-c3ccc(I)cc3)nc2n(C)c1=O [8-(p-iodophenyl)T]
69 | 2.5 | CC(C)c1ccc(-c2nc3c([nH]2)c(=O)n(C)c(=O)n3C)cc1 [8-(p-isopropylphenyl)T]
70 | 2500 | Cn1c(=O)c2[nH]c(-c3ccccc3C(=O)O)nc2n(C)c1=O [8-(o-carboxyphenyl)T]
71 | 50 | Cn1c(=O)c2[nH]c(-c3ccc(C(=O)O)cc3)nc2n(C)c1=O [8-(p-carboxyphenyl)T]
72 | 3500 | Cn1c(=O)c2[nH]c([N+](=O)[O-])nc2n(C)c1=O [8-nitroT]
73 | 20 | Cn1c(=O)c2[nH]c(-[c-]3cccc3)nc2n(C)c1=O.[Fe+2].c1cc[cH-]c1 [8-ferrocenylT]
74 | 1.8 | CN(C)c1ccc(-c2nc3c([nH]2)c(=O)n(C)c(=O)n3C)cc1 [8-(p-dimethylaminophenyl)T]
75 | 80 | Cn1c(=O)c2[nH]c(-c3ccccc3[N+](=O)[O-])nc2n(C)c1=O [8-(o-nitrophenyl)T]
76 | 0.8 | CCc1ccc(-c2nc3c([nH]2)c(=O)n(C)c(=O)n3C)cc1 [8-(p-ethylphenyl)T]
77 | 50 | Cn1c(=O)c2[nH]c(-c3cccc([N+](=O)[O-])c3)nc2n(C)c1=O [8-(m-nitrophenyl)T]
78 | 2 | Cn1c(=O)c2[nH]c(-c3ccc(O)cc3)nc2n(C)c1=O [8-(p-hydroxyphenyl)T]
79 | 2 | CCOc1ccc(-c2nc3c([nH]2)c(=O)n(C)c(=O)n3C)cc1 [8-(p-ethoxyphenyl)T]
80 | 10 | Cn1c(=O)c2[nH]c(-c3ccccc3O)nc2n(C)c1=O [8-(o-hydroxyphenyl)T]
81 | 1.5 | COc1ccc(-c2nc3c([nH]2)c(=O)n(C)c(=O)n3C)cc1 [8-(p-methoxyphenyl)T]
82 | 3.5 | Cn1c(=O)c2[nH]c(-c3ccc(F)cc3)nc2n(C)c1=O [8-(p-fluorophenyl)T]
83 | 8 | Cn1c(=O)c2[nH]c(-c3ccc([N+](=O)[O-])cc3)nc2n(C)c1=O [8-(p-nitrophenyl)T]
84 | 20 | COc1cccc(-c2nc3c([nH]2)c(=O)n(C)c(=O)n3C)c1 [8-(m-methoxyphenyl)T]
85 | 0.8 | Cc1ccc(-c2nc3c([nH]2)c(=O)n(C)c(=O)n3C)cc1 [8-(p-methylphenyl)T]
86 | 3.5 | Cn1c(=O)c2[nH]c(-c3ccc(-c4ccccc4)cc3)nc2n(C)c1=O [8-(p-phenylphenyl)T]

same assay, conditions: bovine brain

Row | times more potent than theophylline | Compound | adenosine receptor blocking activity (in words)
87 | – | C=CCn1c(=O)c2[nH]c(-c3ccc(Cl)cc3N)nc2n(CC=C)c1=O [1,3-diallyl-8-(2-amino-4-chlorophenyl)X, 1,3-diallyl-8-(2-amino-4-chlorophenyl)xanthine] | useful activity as an adenosine receptor antagonist
88 | about 10,000 times | CCCn1c(=O)c2[nH]c(-c3ccccc3)nc2n(CCC)c1=O [B255, 1,3-Dipropyl-8-Phenylxanthine] | significantly lower
